Reference: patent US20250154288A1, “CYTOTOXICITY TARGETING CHIMERAS FOR C-C CHEMOKINE RECEPTOR 2-EXPRESSING CELLS” (GLAXOSMITHKLINE INTELLECTUAL PROPERTY DEVELOPMENT LIMITED, priority 2022, published 2025)
Structures can show the parent of a compound that is named as a salt.

What was measured:
[1] = Blood drug concentration analysis (LC-MS/MS) in In Vivo Depletion Assay; details: human CCR2 (hCCR2) knock-in, 057 background, mouse, whole blood, hCCR2 knock-in mice, IV 0.1 mpk compound + 10 mpk anti-cotinine antibody, 48 hours post-dose, read-out: Exposure of Compound of Formula (I) 48 hours post-dose
Description: Human CCR2 (hCCR2) knock-in mice (057 background) were dosed intravenously with a PBS solution containing a compound of Formula (I) to measure depletion of CCR2 expressing cells in peripheral blood. Peripheral blood from IV dosed mice was also analyzed to determine PK properties of the ARM compounds of Formula (I).
Administration to Animal: Solution formulation of antibody and compound of Formula (I) was injected (bolus injection) to the restrained mouse in the right/left lateral tail vein. Animals were dosed with 0.1 milligram per kilogram (mpk) of the compound of Formula (I) and 10 mpk of the anti-cotinine antibody.
Collection of Blood for PK: Blood was collected at time points 0.25 hour, 2 hours, and […] following administration (50 μL/time point) through retro-orbital bleeding under mild isoflurane anesthesia.
Terminal bleeding at end of experiment (48 hr): Approximately 250 μL of blood in K2EDTA tube and approximately 250 μL of blood in SST (serum separation tube) was collected from each mouse through retro-orbital bleeding under deep isoflurane anesthesia. After bleeding, each mouse was sacrificed by cervical dislocation. The blood distribution at termination was determined as follows: • For PK: 50 μL of K2EDTA blood was transferred to another tube for PK • Flow cytometry: Remaining blood (˜200 μL) was used for flow cytometry analysis. • For serum collection: serum separator tubes (BD) were centrifuged at 4° C., 5000 rpm for 15 minutes. Approximately 100 μL serum was separated and stored at −80° C. for further usage. • Blood drug concentration: Samples collected at the various timepoints (0.25 hr, 2 hr, 24 and 48 hr) were analyzed to determine blood drug concentration.
Drug concentration in blood samples was determined by an LC-MS/MS-based bioanalytical method developed at Syngene. Samples were analyzed on Q-Trap, API-5500 LC-MS/MS system coupled with Exion UHPLC system from SCIEX, USA operated in multiple reaction monitoring mode employing electrospray ionization technique in positive polarity. Analyte and internal standard peaks were resolved on Synergi Polar, 75×2.0 mm, 4μ column using mobile phase 10 mM Ammonium acetate in Milli-Q water as phase A and 0.1% Formic acid in acetonitrile as Phase B. Gradient elution was performed with initial composition 95% Phase A at 0.0 min, holding it for 0.2 minutes, ramping to 5% by 1.0 minute, keeping the same for next 0.5 minutes and coming back to 95% by 1.6 minutes. The total run time was 2 minutes.
Working dilutions for calibration curve and quality control standards were prepared by serially diluting 20 mg/mL stock solution with DMSO. Spiked concentrations for calibration curve in the whole blood ranged from 1 ng/mL to 1000 ng/mL. The working solution of internal standard (Verapamil, 25 ng/mL) was prepared in acetonitrile. 10 μL of the study sample and calibration curve, quality control, and blank whole blood samples were aliquoted in 96 deep well plates for processing. 10 μL of Milli-Q water was added to all the samples and briefly vortexed to initiate complete hemolysis. 10 μL of 20 mM dithiothreitol (OTT) was added to all the samples and incubated for 30 minutes at 37° C. The addition of DTT enhanced the recovery of ARM compounds of Formula (I) from the biological matrix. 300 μL of working internal standard solution was added to all samples except total blank and wash samples, where 300 μL of acetonitrile was added. All the samples were vortex mixed for 5 minutes, followed by centrifugation at 4000 rpm for 10 minutes at 4° C. Supernatants were transferred to the loading plate and injected 3 μL to LC-MS/MS system for analysis. The results are shown below in Table 4 and are reported as compound exposure 48 hours post-dose

[2] = biological target: human alpha1 nicotinic acetylcholine (nACh) receptor (Homo sapiens, UniProt P02708+Q07001); assay: Nicotinic Acetylcholine Receptor Antagonism Assay (IONFlux automated patch clamp); assay type: cell-based; details: for IC50: antagonism of nAChR stimulated with acetylcholine, average if several runs; for Emax at 100 µM: maximum percentage antagonism at Maximum Concentration of Compound Tested 100 μM, read-out: Maximum Response (%)
human alpha1 nicotinic acetylcholine (nACh) receptor, sequence (P02708 21-457): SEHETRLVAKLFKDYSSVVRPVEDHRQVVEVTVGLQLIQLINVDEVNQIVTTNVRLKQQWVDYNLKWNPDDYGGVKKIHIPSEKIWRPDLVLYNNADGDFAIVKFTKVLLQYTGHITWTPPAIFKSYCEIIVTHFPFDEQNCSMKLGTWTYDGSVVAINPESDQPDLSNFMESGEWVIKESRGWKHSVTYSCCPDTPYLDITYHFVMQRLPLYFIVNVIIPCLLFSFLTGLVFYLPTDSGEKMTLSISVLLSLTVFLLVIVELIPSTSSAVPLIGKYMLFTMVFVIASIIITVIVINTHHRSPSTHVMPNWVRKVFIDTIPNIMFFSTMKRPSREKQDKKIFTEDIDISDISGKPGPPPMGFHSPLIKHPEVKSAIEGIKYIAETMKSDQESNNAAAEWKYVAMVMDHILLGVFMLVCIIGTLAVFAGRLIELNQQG
human alpha1 nicotinic acetylcholine (nACh) receptor, sequence (P11230 24-501 partner): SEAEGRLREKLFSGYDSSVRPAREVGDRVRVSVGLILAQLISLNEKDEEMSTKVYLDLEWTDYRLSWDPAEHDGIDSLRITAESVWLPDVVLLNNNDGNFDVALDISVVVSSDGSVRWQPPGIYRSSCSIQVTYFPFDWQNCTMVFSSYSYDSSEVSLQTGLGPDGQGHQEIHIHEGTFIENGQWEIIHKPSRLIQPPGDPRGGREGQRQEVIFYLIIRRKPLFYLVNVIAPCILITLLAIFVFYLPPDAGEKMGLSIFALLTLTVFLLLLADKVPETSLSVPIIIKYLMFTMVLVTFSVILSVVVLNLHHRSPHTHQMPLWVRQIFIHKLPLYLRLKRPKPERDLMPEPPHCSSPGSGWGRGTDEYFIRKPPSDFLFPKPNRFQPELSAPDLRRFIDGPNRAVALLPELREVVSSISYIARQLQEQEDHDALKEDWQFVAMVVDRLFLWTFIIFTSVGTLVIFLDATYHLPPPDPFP
human alpha1 nicotinic acetylcholine (nACh) receptor, sequence (Q07001 22-517): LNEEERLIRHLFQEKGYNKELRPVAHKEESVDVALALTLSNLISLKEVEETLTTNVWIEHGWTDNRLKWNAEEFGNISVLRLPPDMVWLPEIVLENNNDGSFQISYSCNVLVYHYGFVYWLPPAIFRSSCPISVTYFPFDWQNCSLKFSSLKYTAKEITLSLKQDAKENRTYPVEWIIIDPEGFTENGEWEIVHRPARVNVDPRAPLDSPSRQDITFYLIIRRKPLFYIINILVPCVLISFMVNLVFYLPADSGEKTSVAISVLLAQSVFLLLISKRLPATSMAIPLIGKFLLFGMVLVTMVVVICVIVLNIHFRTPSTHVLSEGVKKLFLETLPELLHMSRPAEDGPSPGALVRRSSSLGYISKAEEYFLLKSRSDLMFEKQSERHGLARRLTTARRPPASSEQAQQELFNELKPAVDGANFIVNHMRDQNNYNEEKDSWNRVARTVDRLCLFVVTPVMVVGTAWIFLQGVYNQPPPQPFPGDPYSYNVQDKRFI
Description: Cells expressing human alpha1 nicotinic acetylcholine (nACh) receptor (nAChR) were washed and dissociated using Trypsin containing buffer. Cells were then washed and seeded at a density of 3-5 million cells/mL and allowed to grow for 3 days. Then, 60-80 μL of cells were added to plates and incubated with dose response of an ARM compound of Formula (I) with a top concentration of either 10 μM or 100 μM. The receptor was then stimulated via addition of acetylcholine (ACh) and activation of the receptor was monitored via the IONFlux automated patch clamp system. IonFlux Data Analyzer software was utilized to perform leak subtraction and measure (min) peak current amplitude.
Data processing: (1) Current values recorded for vehicle only applications in individual traps/patterns were subtracted from corresponding current amplitude values for control, test article and control+test article. (2) Control response was calculated as % of the average response of the 3rd out of total 3 ACh (10 mM) applications alone. In rare situations, if the 3rd ACh response was obscured due to technical artifacts, the 2nd and/or 1st ACh (10 mM) application was considered as control. The peak current amplitude generated in the presence of each test article concentration was then used to calculate the % inhibition as compared to control response (10 mM ACh alone). These estimates were further corrected for vehicle response and run down corrected by normalizing with time matched control responses (10 mM ACh alone). The corrected percentages were then fit with a non-linear function in GraphPad Prism 6 (or later versions) to determine the IC50.
Exclusion criteria: (i) any n's with poor recording quality, (ii) control current amplitude <500 pA or (iii) significant outliers, as determined by the Grubbs' test.
ARMs compounds of Formula (I) of the invention were tested for antagonism of the nAChR in the above assay in […] experimental runs and the results are shown in Table 6 below. Antagonistic activity of the compounds of Formula (I) of the invention is reported as an IC50 value (half maximal inhibitory concentration) and the maximum percentage antagonism observed at the highest concentration of compound of Formula (I) tested, as indicated in Table 6. For compounds tested in more than one experimental run, the IC50 value is reported as an average.

SMILES	concentration at 48 h [1] [ng/mL]	IC50 [2] [µM]	Emax at 100 µM [2] [%]
CO[C@@H]1COCC[C@@H]1N[C@@H]1CC[C@](COCCNC(=O)[C@H]2CC[C@H](NC(=O)CCCO[C@H]3CC[C@H](OCCNC(=O)[C@H]4CC(=O)N(C)[C@@H]4c4cccnc4)CC3)CC2)(C(=O)N2CCc3ncc(C(F)(F)F)cc3C2)C1 [Example 11, (2S,3S)-N-(2-(((1R,4S)-4-(4-(((1S,4R)-4-((2-(((1S,3R)-3-(((3S,4S)-3-Methoxytetrahydro-2H-pyran-4-yl)amino)-1-(3-(trifluoromethyl)-5,6,7,8-tetrahydro-1,6-naphthyridine-6-carbonyl)cyclopentyl)methoxy)ethyl)carbamoyl)cyclohexyl)amino)-4-oxobutoxy)cyclohexyl)oxy)ethyl)-1-methyl-5-oxo-2-(pyridin-3-yl)pyrrolidine-3-carboxamide]	85.1	> 100	39
CO[C@@H]1COCC[C@@H]1N[C@@H]1CC[C@](CCCNC(=O)CCOCCOCCO[C@H]2CC[C@H](OCCNC(=O)[C@H]3CC(=O)N(C)[C@@H]3c3cccnc3)CC2)(C(=O)N2CCc3ncc(C(F)(F)F)cc3C2)C1 [Example 20, ((2S,3S)—N-(2-(((1r,4S)-4-(2-(2-(3-((3-((1S,3R)-3-(((3S,4S)-3-Methoxytetrahydro-2H-pyran-4-yl)amino)-1-(3-(trifluoromethyl)-5,6,7,8-tetrahydro-1,6-naphthyridine-6-carbonyl)cyclopentyl)propyl)amino)-3-oxopropoxy)ethoxy)ethoxy)cyclohexyl)oxy)ethyl)-1-methyl-5-oxo-2-(pyridin-3-yl)pyrrolidine-3-carboxamide, Formic acid salt]	74.6		74
CO[C@@H]1COCC[C@@H]1N[C@@H]1CC[C@@](C(=O)N2Cc3cc(C(F)(F)F)cnc3[C@H](NC(=O)[C@H]3CC[C@H](NC(=O)CCCO[C@H]4CC[C@H](OCCNC(=O)[C@H]5CC(=O)N(C)[C@@H]5c5cccnc5)CC4)CC3)C2)(C(C)C)C1 [Example 14, (2S,3S)-N-(2-(((1R,4S)-4-(4-(((1R,4R)-4-(((R)-6-((1S,3R)-1-isopropyl-3-(((3S,4S)-3-methoxytetrahydro-2H-pyran-4-yl)amino)cyclopentane-1-carbonyl)-3-(trifluoromethyl)-5,6,7,8-tetrahydro-1,6-naphthyridin-8-yl)carbamoyl)cyclohexyl)amino)-4-oxobutoxy)cyclohexyl)oxy)ethyl)-1-methyl-5-oxo-2-(pyridin-3-yl)pyrrolidine-3-carboxamide, 3Formic acid salt]	41.4	> 100	38
CO[C@@H]1COCC[C@@H]1N[C@@H]1CC[C@@](C(=O)N2CCc3nc(CCCCOc4cccc(C(=O)NCCOCCOCCOCCOCCOCCOCCOCCOCCOCCNC(=O)[C@H]5CC(=O)N(C)[C@@H]5c5cccnc5)c4)c(C(F)(F)F)cc3C2)(C(C)C)C1 [Example 22, (2S,3S)—N-(1-(3-(4-(6-((1S,3R)-1-Isopropyl-3-(((3S,4S)-3-methoxytetrahydro-2H-pyran-4-yl)amino)cyclopentane-1-carbonyl)-3-(trifluoromethyl)-5,6,7,8-tetrahydro-1,6-naphthyridin-2-yl)butoxy)phenyl)-1-oxo-5,8,11,14,17,20,23,26,29-nonaoxa-2-azahentriacontan-31-yl)-1-methyl-5-oxo-2-(pyridin-3-yl)pyrrolidine-3-carboxamide]	15.5		
CO[C@@H]1COCC[C@@H]1N[C@@H]1CC[C@](CCCNC(=O)[C@H]2CC[C@@H](NC(=O)CCOCCOCCOCCNC(=O)[C@H]3CC(=O)N(C)[C@@H]3c3cccnc3)CC2)(C(=O)N2CCc3ncc(C(F)(F)F)cc3C2)C1 [Example 17, (2S,3S)—N-(2-(2-(2-(3-(((1R,4s)-4-((3-((1S,3R)-3-(((3S,4S)-3-Methoxytetrahydro-2H-pyran-4-yl)amino)-1-(3-(trifluoromethyl)-5,6,7,8-tetrahydro-1,6-naphthyridine-6-carbonyl)cyclopentyl)propyl)carbamoyl)cyclohexyl)amino)-3-oxopropoxy)ethoxy)ethoxy)ethyl)-1-methyl-5-oxo-2-(pyridin-3-yl)pyrrolidine-3-carboxamide, Formic acid salt]	28.3	≥ 100	21
CO[C@@H]1COCC[C@@H]1N[C@@H]1CC[C@@](C(=O)N2Cc3cc(C(F)(F)F)cnc3[C@@H](NC(=O)[C@H]3CC[C@H](NC(=O)CCCO[C@H]4CC[C@H](OCCNC(=O)[C@H]5CC(=O)N(C)[C@@H]5c5cccnc5)CC4)CC3)C2)(C(C)C)C1 [Example 15, (2S,3S)-N-(2-(((1R,4S)-4-(4-(((1S,4R)-4-(((S)-6-((1S,3R)-1-isopropyl-3-(((3S,4S)-3-methoxytetrahydro-2H-pyran-4-yl)amino)cyclopentane-1-carbonyl)-3-(trifluoromethyl)-5,6,7,8-tetrahydro-1,6-naphthyridin-8-yl)carbamoyl)cyclohexyl)amino)-4-oxobutoxy)cyclohexyl)oxy)ethyl)-1-methyl-5-oxo-2-(pyridin-3-yl)pyrrolidine-3-carboxamide]	35		
CO[C@@H]1COCC[C@@H]1N[C@@H]1CC[C@](CCCCCNC(=O)[C@H]2CC[C@H](NC(=O)CCCO[C@H]3CC[C@H](OCCNC(=O)[C@H]4CC(=O)N(C)[C@@H]4c4cccnc4)CC3)CC2)(C(=O)N2CCc3ncc(C(F)(F)F)cc3C2)C1 [Example 9, (2S,3S)-N-(2-(((1R,4S)-4-(4-(((1S,4R)-4-((5-((1S,3R)-3-(((3S,4S)-3-Methoxytetrahydro-2H-pyran-4-yl)amino)-1-(3-(trifluoromethyl)-5,6,7,8-tetrahydro-1,6-naphthyridine-6-carbonyl)cyclopentyl)pentyl)carbamoyl)cyclohexyl)amino)-4-oxobutoxy)cyclohexyl)oxy)ethyl)-1-methyl-5-oxo-2-(pyridin-3-yl)pyrrolidine-3-carboxamide]	49.8		
